From patent US11371097B2, “Articles for diagnosis of liver fibrosis” (THE GOVERNMENT OF THE UNITED STATES, as represented by THE …, priority 2015, dated 2022)
“And” between values parts separate entries of the source, which are not always exact repeats. Identical values can stand only once. Like-named read-outs stand apart in the source and are kept apart here.

How the values were obtained:
liver = type: in vivo, Male Sprague-Dawley rats;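 on Cytoplasmic Alteration: Severity grades from None 0% through Minimal Mild Moderate to Marked over 80% tissue affected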;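 on Inflammation: Severity grades from None 0% through Minimal Mild Moderate to Marked over 80% tissue affected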;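 on vacuolation: Severity grades from None 0% through Minimal Mild Moderate to Marked over 80% tissue affected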
Method: All chemical compounds were diluted in corn oil (CAS No. 8001-30-7) (MP Biomedicals, LLC (Solon, Ohio)). The dose volume was 5 mL/kg. Doses were selected based on doses published in the DrugMatrix database, the National Toxicology Program reports, and ATSDR reports.
(§1) In vivo rat experiments were performed at Integrated Laboratory Systems (ILS, Research Triangle Park, NC). ILS's Institutional Animal Care and Use Committee approved all experimental procedures. Research was conducted in compliance with the Animal Welfare Act, and other Federal statutes and regulations relating to animals and experiments involving animals and adheres to principles stated in the “Guide for Care and Use of Laboratory Animals” as prepared by the Committee on Care and Use of Laboratory Animals of the Institute of Laboratory Animal Resources, National Research Council in facilities that are fully accredited by the Association for Assessment and Accreditation of Laboratory Animal Care, International. Male Sprague-Dawley rats (CD IGS [CRL:CD (SD)]) were purchased from Charles River Laboratories (Stone Ridge, N.Y.). Rats weighing 215-245 g (8 weeks old) were used. Briefly, rats were housed two per cage with a rat tunnel enrichment device (Bio-Serve, Frenchtown, N.J.). Rats were fed a Purina Rodent Diet No. 5002 (Ralston Purina Co., St. Louis, Mo.), supplied ad libitum. Animals received reverse osmosis-treated tap water (City of Durham, N.C.) ad libitum, which was changed at least once weekly. Controls in the animal rooms were set to maintain temperatures between 20-In vivo rat experiments were performed at Integrated Laboratory Systems (ILS, Research Triangle Park, NC). ILS's Institutional Animal Care and Use Committee approved all experimental procedures. Research was conducted in compliance with the Animal Welfare Act, and other Federal statutes and regulations relating to animals and experiments involving animals and adheres to principles stated in the “Guide for Care and Use of Laboratory Animals” as prepared by the Committee on Care and Use of Laboratory Animals of the Institute of Laboratory Animal Resources, National Research Council in facilities that are fully accredited by the Association for Assessment and Accreditation of Laboratory Animal Care, International. Male Sprague-Dawley rats (CD IGS [CRL:CD (SD)]) were purchased from Charles River Laboratories (Stone Ridge, N.Y.). Rats weighing 215-245 g (8 weeks old) were used. Briefly, rats were housed two per cage with a rat tunnel enrichment device (Bio-Serve, Frenchtown, N.J.). Rats were fed a Purina Rodent Diet No. 5002 (Ralston Purina Co., St. Louis, Mo.), supplied ad libitum. Animals received reverse osmosis-treated tap water (City of Durham, N.C.) ad libitum, which was changed at least once weekly. Controls in the animal rooms were set to maintain temperatures between 20-25° C. with a relative humidity of 30-70% and a 12-hour light/12-hour dark cycle, lights on at 6:00 AM. Clinically healthy animals were assigned to dose groups using a procedure that stratifies animals across groups by body weight such that mean body weight of each group was not statistically different from any other group using analysis of variance (Statistical Analysis System version 9.2, SAS Institute, Cary, N.C.). Animals were dosed by oral gavage for five consecutive days (+10 minutes from the previous day's dose administration time). Volume was based upon daily body weight.
Animals were observed cageside one hour following daily dose administration, then 1-2 times per day during dosing regimens. Body weights were measured daily prior to dose administration, and prior to euthanasia. Twenty-four hours after the final dose administration, animals were anesthetized with isoflurane then euthanized by exsanguination followed by decapitation. Livers were harvested at necropsy and weighed to within 0.1 g. One half of the left lobe of the liver was fixed in 10% formalin. […]

[1] = type: in vivo, Male Sprague-Dawley rats
Method: as §1
Animals were observed cageside one hour following daily dose administration, then 1-2 times per day during dosing regimens. Body weights were measured daily prior to dose administration, and prior to euthanasia. Twenty-four hours after the final dose administration, animals were anesthetized with isoflurane then euthanized by exsanguination followed by decapitation. Livers were harvested at necropsy and weighed to within 0.1 g. One half of the left lobe of the liver was fixed in 10% formalin. The remaining half of the left lobe of the liver was flash frozen in liquid nitrogen, then stored below −70° C. Liver specimens were frozen in less than three minutes from time of death.

[2] = system: 67 genes on the fibrosis gene panel; assay: Multiplexed fibrosis gene panel (QuantiGene 2.0 Plex / Bioplex) on liver RNA
[3] = histopathology score, individual animals, Carbon Tetrachloride 200, Bromobenzene 785, Dexamethasone 1 mg/kg
[4] = liver RNA, individual animals, Carbon Tetrachloride 200, Bromobenzene 785, Dexamethasone 1 mg/kg
[5] = liver, relative to the other pathologies

Structure (SMILES): Brc1ccccc1 [bromobenzene]
- Combined histopathological scores as percent of animals with pathology (liver; across dose groups, five days (figure legend)): dose-dependent increase in severe pathology
- Histopathological evidence of bile duct hyperplasia or fibrosis (liver; any dose): did not cause histopathological evidence of bile duct hyperplasia or fibrosis at any dose
- Histopathological evidence of vacuolation and/or glycogen accumulation (liver; exposures on the gene panel (FIG. 9 legend)): correlated with histopathological evidence of vacuolation and/or glyocgen accumulation
- Vacuolation (liver; highest dose): varying degrees of vacuolation in all experimental animals
- Bile Duct Hyperplasia and Fibroplasia (liver; [3]): 0
- Cytoplasmic Alteration (liver; [3]): 1 (2×) and 2 and 3
- Inflammation (liver; [3]): 1 (3×) and 2
- Vacuolation (liver; [3]): 2 and 3 (2×) and 1
- Body weight gain over the five experimental dosing days ([1]; dose groups): decrease in body weight gain
- Body weight change over the five-day exposure interval ([1]; highest dose(s)): resulted in body weight loss over the study interval
- Pcolce expression levels compared with fibrogenic compounds ([2]; liver): anti-correlated with corresponding gene expression levels induced by 4,4′-methylenedianiline and allyl alcohol
- Differential Expression of A2m [2, 4]: −4.054 and −4.444 and −2.844 and −1.670
- Differential Expression of Angptl3 [2, 4]: −0.864 and −1.104 and −0.499 and −0.518
- Differential Expression of Anxa2 [2, 4]: 1.771 and 1.226 and 1.391 and 0.783
- Differential Expression of Apoc [2, 4]: −0.325 and −0.372 and −0.172 and −0.338
- Differential Expression of Arf6 [2, 4]: 0.324 and 0.475 and 0.461 and 0.239
- Differential Expression of Arpc1b [2, 4]: −0.171 and −0.454 and −0.337 and −0.315
- Differential Expression of Arrb1 [2, 4]: −1.220 and −1.482 and −0.627 and −2.254
- Differential Expression of C1qb [2, 4]: −0.465 and −0.014 and 0.309 and 0.018
- Differential Expression of CD9 [2, 4]: −0.072 and −0.052 and 0.416 and 0.476
- Differential Expression of CD53 [2, 4]: −0.045 and −0.339 and 0.303 and −0.440
- Differential Expression of CP [2, 4]: −1.055 and −0.969 and −0.530 and −1.250
- Differential Expression of Capg [2, 4]: −0.835 and −0.762 and 0.053 and −1.140
- Differential Expression of Ccl2 [2, 4]: −0.790 and −1.244 and −1.328 and −1.622
- Differential Expression of Col1a1 [2, 4]: −0.659 and −0.336 and 0.149 and −0.231
- Differential Expression of Col1a2 [2, 4]: −0.901 and −0.686 and −0.378 and −0.731
- Differential Expression of Col4a1 [2, 4]: −0.512 and −0.387 and −0.163 and −0.340
- Differential Expression of Col5a2 [2, 4]: −0.708 and −0.778 and −0.542 and −0.877
- Differential Expression of Ctgf [2, 4]: −1.387 and −1.037 and −0.649 and −0.389
- Differential Expression of Cxcl1 [2, 4]: −0.610 and −0.492 and −0.386 and −0.930
- Differential Expression of Cxcl12 [2, 4]: −2.564 and −2.540 and −1.640 and −2.717
- Differential Expression of Cxcl16 [2, 4]: −0.140 and −1.150 and −0.275 and −0.468
- Differential Expression of Cyba [2, 4]: −0.761 and −0.590 and 0.049 and −0.752
- Differential Expression of Cyp2c11 [2, 4]: −7.760 and −8.696 and −7.411 and −6.882
- Differential Expression of Dsc2 [2, 4]: 0.800 and 0.827 and 0.610 and 0.624
- Differential Expression of Fam102b [2, 4]: −0.808 and −0.338 and −0.148 and −0.780
- Differential Expression of Fam105a [2, 4]: −0.461 and −0.047 and 0.188 and −0.207
- Differential Expression of Fbn1 [2, 4]: −1.303 and −1.090 and −0.632 and −1.013
- Differential Expression of Fn1 [2, 4]: −1.880 and −1.522 and −1.313 and −1.481
- Differential Expression of Fstl1 [2, 4]: −1.078 and −0.899 and −0.423 and −1.140
- Differential Expression of Fxyd5 [2, 4]: −0.189 and −0.159 and 0.283 and −0.184
- Differential Expression of Gpnmb [2, 4]: 1.906 and 1.987 and 2.373 and 1.454
- Differential Expression of Igfals [2, 4]: −2.524 and −2.336 and −2.083 and −3.007
- Differential Expression of Igfbp1 [2, 4]: 3.275 and 3.897 and 0.758 and 3.616
- Differential Expression of Igfbp2 [2, 4]: 0.339 and 0.249 and −0.180 and 0.559
- Differential Expression of Igfbp3 [2, 4]: −2.127 and −1.911 and −1.316 and −1.713
- Differential Expression of Itga1 [2, 4]: −0.672 and −0.525 and 0.257 and −0.880
- Differential Expression of Itgb2 [2, 4]: −0.722 and −0.914 and −0.301 and −1.032
- Differential Expression of Lame2 [2, 4]: −0.725 and −1.692 and −0.854 and −1.188
- Differential Expression of Lbp [2, 4]: 0.157 and 0.036 and 0.207 and −0.066
- Differential Expression of Len2 [2, 4]: −0.682 and −0.719 and −0.661 and −1.007
- Differential Expression of Lgals1 [2, 4]: −0.856 and −0.388 and −0.455 and −0.084
- Differential Expression of Lgals3 [2, 4]: 1.367 and 0.936 and 1.432 and 0.867
- Differential Expression of Lgals3bp [2, 4]: −0.415 and −0.105 and 0.126 and −0.427
- Differential Expression of Lox [2, 4]: −1.197 and −1.023 and −0.699 and −0.615
- Differential Expression of Lrp1 [2, 4]: −1.297 and −1.003 and −0.323 and −1.011
- Differential Expression of Lum [2, 4]: −0.152 and −0.296 and −0.116 and −0.530
- Differential Expression of Mmp2 [2, 4]: −0.086 and 0.177 and 0.235 and −0.151
- Differential Expression of Nid1 [2, 4]: −0.460 and −0.132 and 0.014 and −0.579
- Differential Expression of Pcolce [2, 4]: −1.230 and −0.974 and −0.145 and −1.087
- Differential Expression of Pkm2 [2, 4]: −0.142 and −0.085 and 0.069 and −0.110
- Differential Expression of Plat [2, 4]: 0.202 and 0.005 and 0.027 and 0.084
- Differential Expression of Plau [2, 4]: −1.049 and −0.402 and −0.470 and −1.553
- Differential Expression of Plod2 [2, 4]: −0.446 and −0.410 and −0.613 and −0.623
- Differential Expression of RT1-DMa [2, 4]: −0.569 and −0.589 and 0.149 and −0.606
- Differential Expression of RT1-Da [2, 4]: −0.205 and −0.563 and 0.533 and −0.554
- Differential Expression of S100A6 [2, 4]: −0.521 and 0.005 and −0.682 and 0.207
- Differential Expression of S100A11 [2, 4]: −0.356 and −0.292 and 0.061 and −0.441
- Differential Expression of Serpine1 [2, 4]: 0.153 and 0.825 and −0.550 and 0.552
- Differential Expression of Serping1 [2, 4]: −1.107 and −0.925 and −0.627 and −0.678
- Differential Expression of Slc25a24 [2, 4]: −0.143 and 0.149 and 0.189 and −0.325
- Differential Expression of Sod2 [2, 4]: 0.200 and −0.035 and 0.134 and 0.187
- Differential Expression of TagIn2 [2, 4]: −0.669 and −0.625 and 0.147 and −0.816
- Differential Expression of Tgfb1 [2, 4]: −0.596 and −0.528 and −0.330 and −0.639
- Differential Expression of Timp1 [2, 4]: −0.428 and −0.191 and −0.231 and −0.056
- Differential Expression of Vhl [2, 4]: 0.043 and −0.096 and −0.334 and −0.363
- Differential Expression of Vim [2, 4]: −0.148 and −0.045 and −0.109 and −0.327
- Differential Expression of Vtn [2, 4]: −1.353 and −1.261 and −0.746 and −0.854
- Panel genes downregulated (and upregulated in fibrogenic chemical-dose groups) ([2]; liver, 67-gene panel, 1.5-fold threshold): 12 genes
- A2m expression [2, 5]: downregulated
- Lcn2 expression [2, 5]: downregulated
- Pcolce expression [2, 5]: downregulated
